Assay results as given in publication PMC10489644, “In Vitro Evaluation of the Potential for Drug Interactions by Salidroside” (Nutrients, 2023).
Read-outs that look alike come from different tables or passages of the source.

How the values were obtained:
CYP1A2 = target: T1, CYP1A2 (Homo sapiens, UniProt P05177); assay: CYP direct inhibition in human liver microsomes; assay type: in vitro ADME; details: probe phenacetin, mean of N = 2
T1 construct: Mixed human liver microsomes were purchased from BioreclamationIVT; tissue BioreclamationIVT; host or cells: mixed-donor pool of human liver microsomes (Lot ZZQ)
T1 sequence (P05177 1-516): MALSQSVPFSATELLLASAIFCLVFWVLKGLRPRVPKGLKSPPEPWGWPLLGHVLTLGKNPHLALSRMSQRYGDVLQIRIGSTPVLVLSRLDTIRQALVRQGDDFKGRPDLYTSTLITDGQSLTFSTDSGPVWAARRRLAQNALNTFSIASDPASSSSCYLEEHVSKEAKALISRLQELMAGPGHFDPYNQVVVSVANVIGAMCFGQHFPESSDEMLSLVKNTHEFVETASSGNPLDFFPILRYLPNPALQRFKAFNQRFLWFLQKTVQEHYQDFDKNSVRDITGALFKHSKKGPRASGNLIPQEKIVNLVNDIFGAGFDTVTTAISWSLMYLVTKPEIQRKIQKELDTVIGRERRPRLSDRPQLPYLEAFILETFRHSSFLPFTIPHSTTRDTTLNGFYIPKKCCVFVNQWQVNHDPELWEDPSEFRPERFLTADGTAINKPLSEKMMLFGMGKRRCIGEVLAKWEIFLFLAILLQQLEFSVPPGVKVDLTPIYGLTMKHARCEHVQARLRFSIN

CYP2B6 = assay: in vitro; details: human; for Mean Fold Induction: 48 h
Experimental: The sandwich medium was removed, and the hepatocytes were treated with incubation solutions containing salidroside (1, 5, 10, and 30 µM), vehicle (0.1% DMSO), or positive inducers in triplicate for 24 h after the cultures were established. The incubation solution was aspirated and replaced with incubation solution containing the same concentrations of salidroside, vehicle, or positive inducers for an additional 24 h. The total treatment period was 48 h. After the treatment period of 48 h, the incubation solution was aspirated. Hepatocytes were washed twice with pre-warmed HBSS containing 10 mM HEPES (HBSS I) and then the remaining solution was aspirated. Hepatocytes were washed once with pre-warmed HBSS I and incubated with 140 μL of RLT (lysis buffer from RNeasy 96 Kit) supplemented with 1% β-mercaptoethanol. Plates were then stored at −70 °C in a freezer until RNA analysis. Before RNA extraction, the frozen plate was thawed, and cell lysates were transferred to 96-well plates. RNA isolation was performed using a QIAcube RNA extraction system. Reverse transcription was performed to obtain cDNA. Quantification of the selective genes by real-time quantitative polymerase chain reaction (qPCR) was performed with TaqMan universal PCR Master Mix on the Bio-rad CFX384 TouchTM Real-Time PCR System. The relative change in the mRNA level of the selected target genes induced by each test compound was expressed in relation to the vehicle control sample, and fold changes in gene expression were determined by the ΔΔCt method.

recombinant human MAO-B = target: T2, recombinant human MAO-B (Homo sapiens, UniProt P27338); assay: MAO inhibition, kynuramine oxidation to 4-hydroxyquinoline; assay type: biochemical
T2 construct: purchased Corning
T2 sequence (P27338 1-520): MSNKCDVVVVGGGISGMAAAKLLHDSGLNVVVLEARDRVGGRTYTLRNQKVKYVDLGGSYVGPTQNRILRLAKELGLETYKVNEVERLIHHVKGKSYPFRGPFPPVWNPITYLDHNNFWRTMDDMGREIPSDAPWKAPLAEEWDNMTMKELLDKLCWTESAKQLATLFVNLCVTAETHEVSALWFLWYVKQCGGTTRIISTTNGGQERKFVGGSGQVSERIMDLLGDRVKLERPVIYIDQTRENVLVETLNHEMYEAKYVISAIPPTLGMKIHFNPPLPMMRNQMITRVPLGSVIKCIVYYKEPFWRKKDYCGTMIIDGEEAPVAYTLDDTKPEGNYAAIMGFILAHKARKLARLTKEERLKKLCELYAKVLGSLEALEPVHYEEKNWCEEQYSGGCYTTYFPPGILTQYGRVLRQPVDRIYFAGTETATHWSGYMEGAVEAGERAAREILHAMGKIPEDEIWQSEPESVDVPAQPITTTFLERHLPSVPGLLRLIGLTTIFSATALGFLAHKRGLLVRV
Experimental: A total of 99 µL of substrate working solution was added into 1.1 mL incubation tubes and then 1 µL of the test compound/control working solution or DMSO (vehicle control) was added, mixed well, and pre-incubated at 37 °C for 5 min. MAO-A (0.005 mg/mL) and MAO-B (0.02 mg/mL) were pre-incubated in the working solution at 37 °C for 5 min. A total of 100 µL of pre-incubated MAO-A or MAO-B working solution was added to incubation tubes to start the reaction, mixed well, and incubated at 37 °C for 15 min. […] All samples were centrifuged at 4000 rpm at 4 °C for 15 min, then 100 µL supernatant with 100 µL of water was transferred for LC-MS/MS analysis.
Enzyme activity (%) = PAR with compound/PAR vehicle × 100.
The oxidation of kynuramine to 4-hydroxyquinoline generated was the in vitro marker reaction of MAO-A and MAO-B enzymes.

[1] = Estimation of maximum human plasma concentration
Experimental: An estimation of the maximum plasma concentration of salidroside in humans was made from the pharmacokinetics in rats after oral dosing and the recommended human daily dose of salidroside of 60 mg (two 30 mg capsules). Male Sprague–Dawley rats were dosed either with IV or orally at 12 mg/kg (N = 6/group). Salidroside was moderately cleared (21 mL/min/kg) and well absorbed orally.

CYP3A4 [2] = details: human, 48 h
CYP3A4 [3] = assay: in vitro; details: human, Mean Fold Induction
CYP2C9 = CYP2C9 (Homo sapiens, UniProt P11712); assay: CYP direct inhibition in human liver microsomes
Experimental: Test compound/controls working solution or DMSO were added in 238.5 µL of liver microsomes working solution, mixed well by pipetting several times and pre-incubated in a 37 °C shaking water bath for 5 min. Following the pre-incubation, 60 µL of NADPH working solution were added, mixed well by pipetting several times, and incubated in a 37 °C shaking water bath for 10 min. Following the incubation, 300 µL of quenching solution were immediately added and vortexed for ~20 s to mix. All samples were centrifuged at 4000 rpm for 15 min at 4 °C and then the supernatant was transferred for LC-MS/MS analysis. IC50 values were determined by the Hill slope equation using Graph Pad Prism.
For competitive and time-dependent CYP inhibition, the peak area ratios (PAR) of analyte/internal standard were used to semi-quantitatively determine the concentration of acetaminophen (CYP1A2 activity), 4’-hydroxydiclofenac (CYP2C9), 4’-hydroxymephenytoin (CYP2C19), dextrorphan (CYP2D6), 1’-hydroxymidazolam (CYP3A4), 6β-hydroxytestosterone (CYP3A4), hydroxybupropion (CYP2B6), and N-desethylamodiaquine (CYP2C8), with terfenadine as the internal standard by LC-MS/MS method. The HPLC-MS system utilized an Acquity UPLC system and Sciex API 4000 mass spectrometer in ESI positive mode, with quantitation employing MRM. Samples were injected onto an Atlantis T3 5 μM column (2.1 x 50 mm). […]

CYP2C19 = CYP2C19 (Homo sapiens, UniProt P33261); assay: Time-dependent inhibition (IC50 shift) in human liver microsomes
Sequence of CYP2C19 (P33261 whole entry): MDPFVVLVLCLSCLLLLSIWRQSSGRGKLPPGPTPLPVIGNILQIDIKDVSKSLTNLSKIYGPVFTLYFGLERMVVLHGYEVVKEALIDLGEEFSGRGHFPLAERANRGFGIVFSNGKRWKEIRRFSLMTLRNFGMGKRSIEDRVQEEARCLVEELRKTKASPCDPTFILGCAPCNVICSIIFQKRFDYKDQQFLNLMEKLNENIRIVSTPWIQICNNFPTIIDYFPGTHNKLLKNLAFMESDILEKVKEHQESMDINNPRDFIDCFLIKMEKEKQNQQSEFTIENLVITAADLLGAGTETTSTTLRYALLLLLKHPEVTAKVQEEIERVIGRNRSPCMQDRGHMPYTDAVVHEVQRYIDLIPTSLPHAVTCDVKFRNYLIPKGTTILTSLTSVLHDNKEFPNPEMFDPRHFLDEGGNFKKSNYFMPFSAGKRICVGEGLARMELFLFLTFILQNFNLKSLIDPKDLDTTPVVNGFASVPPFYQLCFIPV
Experimental: Incubation without 30 min pre-incubation, 178.5 µL of liver microsomes working was pre-incubated in a 37 °C water bath for 30 min. After the pre-incubation, 1.5 μL of test compound or control compound working solution, 60 μL of substrate working solution, and 60 μL of NADPH working solution were added; then, the reaction mixture was mixed by pipetting up and down and then incubated at 37 °C for 10 min. Incubation with 30 min pre-incubation. Next, 1.5 μL of test compound or control compound working solutions and 60 μL of NADPH working solution were added into 178.5 μL of liver microsome working solution, then the reaction mixture was mixed by pipetting up and down and then pre-incubated at 37 °C for 30 min. […]
For competitive and time-dependent CYP inhibition, the peak area ratios (PAR) of analyte/internal standard were used to semi-quantitatively determine the concentration of acetaminophen (CYP1A2 activity), 4’-hydroxydiclofenac (CYP2C9), 4’-hydroxymephenytoin (CYP2C19), dextrorphan (CYP2D6), 1’-hydroxymidazolam (CYP3A4), 6β-hydroxytestosterone (CYP3A4), hydroxybupropion (CYP2B6), and N-desethylamodiaquine (CYP2C8), with terfenadine as the internal standard by LC-MS/MS method. The HPLC-MS system utilized an Acquity UPLC system and Sciex API 4000 mass spectrometer in ESI positive mode, with quantitation employing MRM. […]

Sequence of CYP2C9 (P11712 whole entry): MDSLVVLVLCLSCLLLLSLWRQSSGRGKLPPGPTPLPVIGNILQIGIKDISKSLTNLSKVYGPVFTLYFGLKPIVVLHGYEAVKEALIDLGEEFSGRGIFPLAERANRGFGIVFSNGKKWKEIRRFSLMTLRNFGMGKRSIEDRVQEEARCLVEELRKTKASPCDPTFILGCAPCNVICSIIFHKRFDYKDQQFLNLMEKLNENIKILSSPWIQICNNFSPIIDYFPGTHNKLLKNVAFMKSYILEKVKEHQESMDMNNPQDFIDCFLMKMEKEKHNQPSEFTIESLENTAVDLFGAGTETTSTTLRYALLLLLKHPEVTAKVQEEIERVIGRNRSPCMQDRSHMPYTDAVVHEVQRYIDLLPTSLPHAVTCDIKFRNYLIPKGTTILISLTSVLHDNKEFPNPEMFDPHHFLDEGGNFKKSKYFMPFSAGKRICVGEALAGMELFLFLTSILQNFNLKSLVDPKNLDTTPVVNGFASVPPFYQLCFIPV

Structure (SMILES): OC[C@H]1O[C@@H](OCCc2ccc(O)cc2)[C@H](O)[C@@H](O)[C@@H]1O [Salidroside]
- IC50 (CYP1A2): > 50 µM
- Mean Fold Induction (CYP2B6; 1 µM): 0.6 fold
- Mean Fold Induction (CYP2B6; 10 µM): 1.1 fold
- fold induction at 48 h, 1 µM (CYP2B6; Mean Fold Induction): 0.9
- fold induction at 48 h, 3 µM (CYP2B6; Mean Fold Induction): 1.2
- fold induction at 48 h, 10 µM (CYP2B6; Mean Fold Induction): 0.8
- inhibition at 50 µM (recombinant human MAO-B; at 50 µM, read-out: maximum % inhibition of MAO-B): 22.5%
- IC50 (recombinant human MAO-B; substrate kynuramine (20 µM), mean of N = 2): > 50 µM
- Cmax ([1]; 60 mg PO daily (~1 mg/kg), scaled from rat, read-out: predicted human total Cmax (predicted plasma concentration)): < 2000 nM
- predicted human unbound Cmax ([1]; 60 mg daily, Cmax x fu,plasma): ~ 1.18 μM
- % Positive Control (CYP3A4 [2]; 3 µM): 0%
- % Positive Control (CYP3A4 [2]; 10 µM): 0%
- fold induction at 48 h, 1 µM (CYP3A4 [3]): 0.7
- IC50 (CYP2C9): > 50 µM
- IC50 (CYP2C19): > 50 µM
